pIC50: −log10 of the molar value.
Key:
[1] = molecular target: hROMK (human Kir1.1) (Homo sapiens (Human), UniProt P48048); experiment: cell-based; conditions: CHO T-Rex hROMK stable cell line; thallium flux; 10-point concentration response curve; read-out: Human ROMK Th Flux IC50
Experimental: Solutions and reagents: Thallium flux assay was performed using FluxOR kit (F10017, Life Technologies). Loading buffer, assay buffer and stimulus buffer were prepared using kit components. HBSS (Hank's balanced salt solution, Cat#14025-092) was purchased separately from Life Technologies.
To prepare 10 ml of loading buffer: 10 μl of FluxOR dye (reconstituted in DMSO) was first added to 100 μl of powerload concentrate and this mix along with 100 μl of Probenicid (100×) was then added to 9.79 ml of HBSS. Assay buffer (10 ml) was prepared by addition of 2 ml of FluxOR chloride free buffer (5×), 100 μl of Probenicid (100×), and 0.2 ml of Ouabain (13.77 mM) to 7.7 ml of deionized water. Stimulus buffer was composed of 15 mM Tl2SO4, 0.75 mM K2SO4 in FluxOR chloride free buffer (diluted to 1× using deionized water). The final concentration of Tl2SO4 and K2SO4 in the assay plate was 3 mM and 0.15 mM, respectively.
Plating and induction of cells: The CHO T-Rex hROMK (human Kir1.1) stable cell line was maintained in Ham's F12 media supplemented with 10% FBS, 1% Penicillin-Streptomycin, 500 μg/ml Zeocin and 10 μg/ml Blasticidin at 37° C. in a 5% CO2 incubator. One day before the experiment, the cells were dissociated by incubation with Versene solution (15040-066, Life Technologies) for 10 minutes at 37° C. followed by addition of growth media. The cell suspension was centrifuged at 1200 rpm for 5 min. After discarding the supernatant, the cells were resuspended in fresh growth media and cell concentration was determined using a hemocytometer. Next, 0.5 μg/ml of Doxycycline was added to the cell suspension to induce hROMK channel expression and 50 μl (10,000 cells/well) of cell suspension was added to each well of a poly-D lysine coated 384 well black, optically clear bottom plate (6007718, Perkin Elmer). The assay plate was kept at 37° C. in a 5% CO2 incubator.
Assay protocol: On the day of experiment, media was removed and loading buffer was added (30 μl/well) to the assay plate. The cells were incubated in the loading buffer for 30 minutes at 37° C. The loading buffer was then replaced by assay buffer (30 μl/well) followed by addition of test compounds or controls. The cells were incubated with compounds for 30 minutes and the plate was then mounted on FlexStation (Molecular Devices) for fluorescence read out with excitation and emission wavelengths at 488 and 525 nm, respectively. Each well was read for 90 sec at 2 sec interval and the stimulus buffer was added after 20 seconds of baseline recording. The final DMSO concentration was either 0.5 or 1% in the assay plate. Positive and negative controls were defined by addition of DMSO or 3 μM of a standard ROMK inhibitor, respectively, to the wells instead of a test compound.
A 10-point concentration response curve was used to estimate the IC50 value of test compounds.

[2] = molecular target: hERG channels (Homo sapiens (Human), UniProt Q12809); experiment: hERG Manual Patch Clamp Assay; assay type: cell-based; conditions: human, HEK 293 cells stably expressing hERG channels, pH 7.4, 1 uM, read-out: hERG EP % Inh @ 1 uM
hERG channels, sequence (Q12809 whole entry): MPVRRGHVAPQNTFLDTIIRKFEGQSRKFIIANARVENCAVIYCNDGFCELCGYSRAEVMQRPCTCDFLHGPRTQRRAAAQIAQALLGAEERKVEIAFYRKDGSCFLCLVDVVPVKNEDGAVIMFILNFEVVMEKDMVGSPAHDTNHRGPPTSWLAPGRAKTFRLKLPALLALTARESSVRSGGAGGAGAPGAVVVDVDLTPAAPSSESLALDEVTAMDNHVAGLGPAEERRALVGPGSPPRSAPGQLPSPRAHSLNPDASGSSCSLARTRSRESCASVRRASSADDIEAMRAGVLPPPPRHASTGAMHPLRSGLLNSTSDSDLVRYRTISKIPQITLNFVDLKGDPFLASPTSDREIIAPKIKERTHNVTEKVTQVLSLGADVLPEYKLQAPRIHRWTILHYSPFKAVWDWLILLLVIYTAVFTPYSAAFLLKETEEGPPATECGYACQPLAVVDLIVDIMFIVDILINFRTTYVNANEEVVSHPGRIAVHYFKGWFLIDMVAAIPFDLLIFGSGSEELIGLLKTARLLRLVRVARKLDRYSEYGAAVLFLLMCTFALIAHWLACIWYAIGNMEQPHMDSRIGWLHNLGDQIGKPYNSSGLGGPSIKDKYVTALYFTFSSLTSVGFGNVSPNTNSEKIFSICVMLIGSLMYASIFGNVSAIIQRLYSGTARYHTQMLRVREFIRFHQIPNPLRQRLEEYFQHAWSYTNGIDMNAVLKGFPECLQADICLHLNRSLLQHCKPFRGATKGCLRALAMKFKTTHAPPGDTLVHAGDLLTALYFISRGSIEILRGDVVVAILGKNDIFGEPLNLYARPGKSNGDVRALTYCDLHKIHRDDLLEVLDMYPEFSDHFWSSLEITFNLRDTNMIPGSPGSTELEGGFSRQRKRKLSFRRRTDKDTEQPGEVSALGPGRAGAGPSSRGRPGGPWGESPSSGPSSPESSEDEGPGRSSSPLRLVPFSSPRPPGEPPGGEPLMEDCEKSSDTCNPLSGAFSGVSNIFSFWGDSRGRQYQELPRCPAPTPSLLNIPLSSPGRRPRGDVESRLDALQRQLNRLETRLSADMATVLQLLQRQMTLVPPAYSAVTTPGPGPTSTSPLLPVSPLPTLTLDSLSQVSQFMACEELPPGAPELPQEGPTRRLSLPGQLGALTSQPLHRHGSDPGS
Experimental: hERG electrophysiology assay: The experimental compounds were assessed for hERG activity on HEK 293 cells stably expressing hERG channels using patch clamp technique. Coverslips plated with hERG expressing cells were placed in the experimental chamber and were perfused with a solution composed of (in mM): 140 NaCl, 4 KCl, 1.8 CaCl2, 1 MgCl2, 10 Glucose, 10 HEPES (pH 7.4, NaOH) at room temperature. Borosilicate patch pipettes had tip resistances of 2-4 Mohms when filled with an internal solution containing: 130 KCl, 1 MgCl2, 1 CaCl2, 10 EGTA, 10 HEPES, 5 ATP-K2 (pH 7.2, KOH). The cells were clamped at −80 mV in whole cell configuration using an Axopatch 200B (Axon instruments, Union City, Calif.) patch clamp amplifier controlled by pClamp (Axon instruments) software. Upon formation of a gigaseal, the following voltage protocol was repeatedly (0.05 Hz) applied to record tail currents: depolarization step from −80 mV to +20 mV for 2 seconds followed by a hyperpolarization step to −65 mV (3 seconds) to elicit tail currents. Compounds were applied after stabilization of tail current. First, tail currents were recorded in presence of extracellular solution alone (control) and subsequently, in extracellular solution containing increasing compound concentrations. Each compound concentration was applied for 2-5 minutes. The percentage inhibition at each concentration was calculated as reduction in peak tail current with respect to the peak tail current recorded in the presence of control solution. Data analysis was performed in a custom made template. The percent inhibitions at different concentrations were plotted to obtain a concentration response curve, which was subsequently fitted with a four parameter equation to calculate hERG IC50 value.

hROMK (human Kir1.1), sequence (P48048 whole entry): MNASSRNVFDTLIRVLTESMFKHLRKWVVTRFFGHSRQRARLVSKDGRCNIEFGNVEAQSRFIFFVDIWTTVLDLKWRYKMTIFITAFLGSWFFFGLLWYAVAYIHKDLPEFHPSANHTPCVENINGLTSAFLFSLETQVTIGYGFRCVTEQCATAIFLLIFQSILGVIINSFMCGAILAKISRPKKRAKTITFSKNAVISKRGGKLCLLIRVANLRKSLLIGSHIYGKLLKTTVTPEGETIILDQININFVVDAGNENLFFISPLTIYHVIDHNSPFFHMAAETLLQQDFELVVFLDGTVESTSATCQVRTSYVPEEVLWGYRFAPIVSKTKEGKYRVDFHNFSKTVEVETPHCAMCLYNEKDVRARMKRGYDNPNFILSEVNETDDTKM

SMILES | pIC50 [1] | inhibition at 1 µM [2] [%]
CCOc1cc(-n2cc(CN3CCN[C@H](c4ccc5c(c4C)COC5=O)C3)cn2)ncc1C#N [Example 137-I, (R)-4-ethoxy-6-(4-((3-(4-methyl-1-oxo-1,3-dihydroisobenzofuran-5-yl)piperazin-1-yl)methyl)-1H-pyrazol-1-yl)nicotinonitrile] | 7.59 | 23
Cc1cc(-c2cc(CN3CC(c4ccc5c(c4C)COC5=O)NC(C)(C)C3)on2)ncc1C#N (single isomer, unassigned) [Example 268-I, 6-(5-((3,3-dimethyl-5-(4-methyl-1-oxo-1,3-dihydroisobenzofuran-5-yl)piperazin-1-yl)methyl)isoxazol-3-yl)-4-methylnicotinonitrile] | 7.70 | 9
Cc1cc(-c2nc(CN3C[C@@H](c4ccc5c(c4C)COC5=O)N[C@@H](C)C3)no2)ncc1C#N [Example 259-I, 4-methyl-6-(3-(((3S,5R)-3-methyl-5-(4-methyl-1-oxo-1,3-dihydroisobenzofuran-5-yl)piperazin-1-yl)methyl)-1,2,4-oxadiazol-5-yl)nicotinonitrile] | 7.28 | 8.6
Cc1cc(-n2cc(CN3C[C@@H](c4ccc5c(c4C)COC5=O)OC3=O)cn2)ncc1C#N [Example 9-I, (R)-4-methyl-6-(4-((5-(4-methyl-1-oxo-1,3-dihydroisobenzofuran-5-yl)-2-oxooxazolidin-3-yl)methyl)-1H-pyrazol-1-yl)nicotinonitrile] | 7.36 | 47
Cc1c([C@@H]2CN(Cc3ccc(-n4cnc(C#N)c4)nc3)CCO2)ccc2c1COC2=O [Example 37-I, (R)-1-(5-((2-(4-methyl-1-oxo-1,3-dihydroiso-benzofuran-5-yl)morpho-lino)methyl)pyridin-2-yl)-1H-imidazole-4-carbonitrile] | 7.80 | 6.2
Cc1cc(-n2cc(CN3CC(CO)NC(c4ccc5c(c4C)COC5=O)C3)nn2)ncc1C#N (single isomer, unassigned) [Example 88-III, 6-(4-((3-(hydroxymethyl)-5-(4-methyl-1-oxo-1,3-dihydroisobenzofur-an-5-yl)piperazin-1-yl)methyl)-1H-1,2,3-triazol-1-yl)-4-methylnicotinonitrile] | 7.44 | 8.3
Cc1c([C@@H]2CN(Cc3cn(-c4ccc(C#N)cn4)cn3)CCO2)ccc2c1COC2=O [Example 28-I, (R)-6-(4-((2-(4-methyl-1-oxo-1,3-dihydroiso-benzofuran-5-yl)morpho-lino)methyl)-1H-imidazol-1-yl)nicotino-nitrile] | 7.07 | 15
COc1cc(-n2cc(CN3CC[C@@H](O)[C@H](c4ccc5c(c4C)COC5=O)C3)cn2)ncc1C#N [Example 112-I, 6-(4-(((3R,4R)-4-hydroxy-3-(4-methyl-1-oxo-1,3-dihydroisobenzofur-an-5-yl)piperidin-1-yl)methyl)-1H-pyrazol-1-yl)-4-methoxynicotinonit-rile] | 7.74 | 22
COc1nc(-n2cc(CN3C[C@@H](c4ccc5c(c4C)COC5=O)N[C@@H](C)C3)cn2)ccc1C#N [Example 93-I, 2-methoxy-6-(4-(((3S,5R)-3-methyl-5-(4-methyl-1-oxo-1,3-dihydroisobenzofur-an-5-yl)piperazin-1-yl)methyl)-1H-pyrazol-1-yl)nicotinonitrile] | 7.36 | 23
Cc1c([C@@H]2CN(Cc3ccc(-n4cc(C#N)nn4)nc3)CCN2)ccc2c1COC2=O [Example 225-I, (R)-1-(5-((3-(4-methyl-1-oxo-1,3-dihydroisobenzofuran-5-yl)piperazin-1-yl)methyl)pyridin-2-yl)-1H-1,2,3-triazole-4-carbonitrile] | 7.72 | 39
Cc1cc(-n2cc(CN3CC(c4ccc5c(c4C)COC5=O)C(O)C(C)(C)C3)cn2)ncc1C#N (stereo not shown) [Example 116-I, 6-(4-((4-hydroxy-3,3-dimethyl-5-(4-methyl-1-oxo-1,3-dihydroisobenzofuran-5-yl)piperidin-1-yl)methyl)-1H-pyrazol-1-yl)-4-methylnicotinonitrile] | 7.41 | 6.4
COc1c(CN2CCN[C@H](c3ccc4c(c3C)COC4=O)C2)cnn1-c1cc(C)c(C#N)cn1 [Example 6-I, (R)-6-(5-methoxy-4-((3-(4-methyl-1-oxo-1,3-dihydroisobenzofuran-5-yl)piperazin-1-yl)methyl)-1H-pyrazol-1-yl)-4-methylnicotinonitrile] | 7.40 | 38
Cc1cn(-c2ccc(CN3CCN[C@H](c4ccc5c(c4C)COC5=O)C3)cn2)nn1 [Example 222-I, (R)-4-methyl-5-(4-((6-(4-methyl-1H-1,2,3-triazol-1-yl)pyridin-3-yl)methyl)piperazin-2-yl)isobenzofuran-1(3H)-one] | 7.22 | 12
Cc1cc(-n2cc(CN3CCO[C@H](c4ccc5c(c4C)COC5=O)C3)c(C)n2)ncc1C#N [Example 52-I, (R)-4-methyl-6-(3-methyl-4-((2-(4-methyl-1-oxo-1,3-dihydroisobenzo-furan-5-yl)morpholino)methyl)-1H-pyrazol-1-yl)nicotinonitrile] | 8.55 | 72
Cc1c([C@@H]2CN(Cc3cnn(-c4ccn(C(F)F)c(=O)c4)c3)C[C@H](C)N2)ccc2c1COC2=O [Example 129-I, 1-(difluoromethyl)-4-(4-(((3S,5R)-3-methyl-5-(4-methyl-1-oxo-1,3-dihydroisobenzofuran-5-yl)piperazin-1-yl)methyl)-1H-pyrazol-1-yl)pyridin-2(1H)-one] | 7.59 | 32
Cc1c([C@@H]2CN(Cc3cnn(-c4cc(N5CCOC5=O)ccn4)c3)CCN2)ccc2c1COC2=O [Example 185-I, (R)-3-(2-(4-((3-(4-methyl-1-oxo-1,3-dihydroisobenzofuran-5-yl)piperazin-1-yl)methyl)-1H-pyrazol-1-yl)pyridin-4-yl)oxazolidin-2-one] | 7.00 | 9.6
Cc1cc(-n2cc(CN3CCC(C)(O)C(c4ccc5c(c4C)COC5=O)C3)cn2)ncc1C#N (single isomer, unassigned) [Example 114-I, 6-(4-((4-hydroxy-4-methyl-3-(4-methyl-1-oxo-1,3-dihydroisobenzofuran-5-yl)piperidin-1-yl)methyl)-1H-pyrazol-1-yl)-4-methylnicotinonitrile] | 7.49 | 4.2
Cc1cc(-n2cc(CN3CCN[C@H](c4ccc5c(c4C)COC5=O)C3)c(C(F)F)n2)ncc1C#N [Example 233-I, (R)-6-(3-(difluoromethyl)-4-((3-(4-methyl-1-oxo-1,3-dihydroisobenzofuran-5-yl)piperazin-1-yl)methyl)-1H-pyrazol-1-yl)-4-methylnicotinonitrile] | 7.66 | 31
COc1ncnc(-n2cc(CN3C[C@@H](c4ccc5c(c4C)COC5=O)N[C@@H](C)C3)cn2)n1 [Example 194-I, 5-((2R,6S)-4-((1-(4-methoxy-1,3,5-triazin-2-yl)-1H-pyrazol-4-yl)methyl)-6-methylpiperazin-2-yl)-4-methylisobenzofuran-1(3H)-one] | 7.22 | 11
COc1cc(-n2cnc(CN3CCO[C@H](c4ccc5c(c4C)COC5=O)C3)c2)ncc1C#N [Example 27-I, (R)-4-methoxy-6-(4-((2-(4-methyl-1-oxo-1,3-dihydroisobenzofuran-5-yl)morpholino)methyl)-1H-imidazol-1-yl) nicotinonitrile] | 7.49 | 11
COc1c(CN2CCO[C@H](c3ccc4c(c3C)COC4=O)C2)cnn1-c1cc(C)c(C#N)cn1 [Example 26-I, (R)-6-(5-methoxy-4-((2-(4-methyl-1-oxo-1,3-dihydroisobenzofuran-5-yl)morpholino)methyl)-1H-pyrazol-1-yl)-4-methylnicotinonitrile] | 7.16 | 20
Cc1cc(-n2cc(CN3CCN[C@H](c4ccc5c(c4C)COC5=O)C3)c(C)n2)ncc1C#N [Example 145-I, (R)-4-methyl-6-(3-methyl-4-((3-(4-methyl-1-oxo-1,3-dihydroisobenzofuran-5-yl)piperazin-1-yl)methyl)-1H-pyrazol-1-yl)nicotinonitrile] | 7.82 | 25
Cc1cc(-n2cc(CN3CC(CO)CC(c4ccc5c(c4C)COC5=O)C3)cn2)ncc1C#N (single isomer, unassigned) [Example 261-II, 6-(4-((3-(hydroxymethyl)-5-(4-methyl-1-oxo-1,3-dihydroisobenzofuran-5-yl)piperidin-1-yl)methyl)-1H-pyrazol-1-yl)-4-methylnicotinonitrile] | 7.57 | 44
Cc1c([C@@H]2CN(Cc3cnn(-c4cc(OC(C)C)c(C#N)cn4)c3)CCN2)ccc2c1COC2=O [Example 140-I, (R)-4-isopropoxy-6-(4-((3-(4-methyl-1-oxo-1,3-dihydroisobenzofuran-5-yl)piperazin-1-yl)methyl)-1H-pyrazol-1-yl)nicotinonitrile] | 7.59 | 49
Cc1nc(-n2cnc(CN3C[C@@H](c4ccc5c(c4C)COC5=O)N[C@@H](C)C3)c2)nc(C)c1C#N [Example 95-I, 4,6-dimethyl-2-(4-(((3S,5R)-3-methyl-5-(4-methyl-1-oxo-1,3-dihydroisobenzofur-an-5-yl)piperazin-1-yl)methyl)-1H-imidazol-1-yl)pyrimidine-5-carbonitrile] | 7.59 | 13
COc1cc(-n2cc(CCN3CCO[C@H](c4ccc5c(c4C)COC5=O)C3)cn2)ncc1C#N [Example 11-I, (R)-4-methoxy-6-(4-(2-(2-(4-methyl-1-oxo-1,3-dihydroisobenzofuran-5-yl)morpholino)ethyl)-1H-pyrazol-1-yl)nicotinonitrile] | 7.52 | 40

From patent US10501449B2 (priority 2018, dated 2019)
